For data set [1], the target named is T1, PIP4K2C (Homo sapiens, UniProt Q8TBX8).
T1 sequence (Q8TBX8 1-421): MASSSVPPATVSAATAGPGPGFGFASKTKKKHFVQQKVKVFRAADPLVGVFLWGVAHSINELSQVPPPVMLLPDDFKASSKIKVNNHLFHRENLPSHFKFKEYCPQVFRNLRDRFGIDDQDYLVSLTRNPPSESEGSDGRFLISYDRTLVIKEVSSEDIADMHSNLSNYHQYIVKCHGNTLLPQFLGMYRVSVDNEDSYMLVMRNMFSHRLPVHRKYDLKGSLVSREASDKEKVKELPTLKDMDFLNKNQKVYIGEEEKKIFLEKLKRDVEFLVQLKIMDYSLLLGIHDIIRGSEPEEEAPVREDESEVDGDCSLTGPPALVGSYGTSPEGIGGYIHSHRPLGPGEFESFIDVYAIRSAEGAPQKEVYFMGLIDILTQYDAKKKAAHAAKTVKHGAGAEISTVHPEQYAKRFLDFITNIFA
The settings on record: cited from earlier work.

The subject of a further data set is VEEV (TC-83). The data set can be described thus: microbe, parasite or virus in culture. The settings on record: Venezuelan equine encephalitis virus, U-87 MG, 18 h, read-out: VEEV (TC-83) EC50. The data set is classed as cell-based.
The subject of the next data set is SARS-CoV-2. Description: microbe, parasite or virus in culture. Format: cell-based, severe acute respiratory syndrome coronavirus 2. The settings on record: Severe acute respiratory syndrome coronavirus 2, VeroE6/TMPRSS2, 24 h; read-out: SARS-CoV2 EC50.
Data set [2] can be described thus: cell viability (AlamarBlue) in SARS-CoV-2-infected Vero E6/TMPRSS2 cells. The settings on record: African green monkey, Vero E6/TMPRSS2 cells infected with SARS-CoV-2, half-maximal cytotoxic concentration, read-out: SARS-CoV2 CC50. The data set is classed as cell-based.
A further data set deals with U-87 MG cells. The settings on record: half-maximal cytotoxic concentration.
In data set [3] the test system is non-Hodgkin lymphoma (NHL) B-cell lines. The settings on record: large panel of NHL B-cell lines; read-out: antiproliferative IC50; cited from earlier work.
Data set [4] concerns subcutaneous Burkitt lymphoma xenografts. The settings on record: oral administration, mice; cited from earlier work.
The next data set has as its system Capan-1. The data set can be described thus: cell proliferation assay (MTS, 72 h). The settings on record: Homo sapiens, CAPAN-1, 72 h, read-out: CC50 Capan-1.
The test system of the next data set is HCT-116. Description: cell proliferation assay (MTS, 72 h). The settings on record: Homo sapiens, HCT-116, 72 h, read-out: CC50 HCT-116.
A further data set deals with LN-229. The data set can be described thus: cell proliferation assay (MTS, 72 h). The settings on record: Homo sapiens, LN-229, 72 h, read-out: CC50 LN-229.
In a further data set the test system is NCI-H460. Description: cell proliferation assay (MTS, 72 h). The settings on record: Homo sapiens, NCI-H460, 72 h, read-out: CC50 NCI-H460.
For the next data set, the system named is DND-41. The data set can be described thus: cell proliferation assay (MTS, 72 h). The settings on record: DND41, 72 h, read-out: CC50 DND-41.
A further data set has as its system HL-60. Description: cell proliferation assay (MTS, 72 h). The settings on record: Homo sapiens, HL-60, 72 h, read-out: CC50 HL-60.
The test system of the next data set is K-562. The data set can be described thus: cell proliferation assay (MTS, 72 h). The settings on record: Homo sapiens, K562, 72 h, read-out: CC50 K-562.
The next data set concerns Z-138. The data set can be described thus: cell proliferation assay (MTS, 72 h). The settings on record: Homo sapiens, Z-138, 72 h, read-out: CC50 Z-138.
The target in a further data set is T2, PIKfyve (Homo sapiens, UniProt Q9Y2I7).
T2 construct: purchased Nanosyn, Santa Clara, CA, USA (contract assay service)
The data set can be described thus: biochemical PIKfyve mobility shift assay (Nanosyn).

In data set [5] the target is T1, PIP4K2C. Description: PIP4K2C binding assay (DiscoverX/Kinome platform).

Read-outs that look alike come from different tables or passages of the source.

Broadly, the Kd is the free concentration of one partner at which half of the binding sites on the other are occupied at equilibrium, for simple one-to-one binding. Broadly, the EC50 is the midpoint of the concentration-response curve. As usually defined, the CC50 is the concentration at which the toxic effect on the cells reaches its halfway point. Usually IC50 stands for the point on the concentration scale where inhibition reaches its midpoint.

T2 sequence (Q9Y2I7 whole entry): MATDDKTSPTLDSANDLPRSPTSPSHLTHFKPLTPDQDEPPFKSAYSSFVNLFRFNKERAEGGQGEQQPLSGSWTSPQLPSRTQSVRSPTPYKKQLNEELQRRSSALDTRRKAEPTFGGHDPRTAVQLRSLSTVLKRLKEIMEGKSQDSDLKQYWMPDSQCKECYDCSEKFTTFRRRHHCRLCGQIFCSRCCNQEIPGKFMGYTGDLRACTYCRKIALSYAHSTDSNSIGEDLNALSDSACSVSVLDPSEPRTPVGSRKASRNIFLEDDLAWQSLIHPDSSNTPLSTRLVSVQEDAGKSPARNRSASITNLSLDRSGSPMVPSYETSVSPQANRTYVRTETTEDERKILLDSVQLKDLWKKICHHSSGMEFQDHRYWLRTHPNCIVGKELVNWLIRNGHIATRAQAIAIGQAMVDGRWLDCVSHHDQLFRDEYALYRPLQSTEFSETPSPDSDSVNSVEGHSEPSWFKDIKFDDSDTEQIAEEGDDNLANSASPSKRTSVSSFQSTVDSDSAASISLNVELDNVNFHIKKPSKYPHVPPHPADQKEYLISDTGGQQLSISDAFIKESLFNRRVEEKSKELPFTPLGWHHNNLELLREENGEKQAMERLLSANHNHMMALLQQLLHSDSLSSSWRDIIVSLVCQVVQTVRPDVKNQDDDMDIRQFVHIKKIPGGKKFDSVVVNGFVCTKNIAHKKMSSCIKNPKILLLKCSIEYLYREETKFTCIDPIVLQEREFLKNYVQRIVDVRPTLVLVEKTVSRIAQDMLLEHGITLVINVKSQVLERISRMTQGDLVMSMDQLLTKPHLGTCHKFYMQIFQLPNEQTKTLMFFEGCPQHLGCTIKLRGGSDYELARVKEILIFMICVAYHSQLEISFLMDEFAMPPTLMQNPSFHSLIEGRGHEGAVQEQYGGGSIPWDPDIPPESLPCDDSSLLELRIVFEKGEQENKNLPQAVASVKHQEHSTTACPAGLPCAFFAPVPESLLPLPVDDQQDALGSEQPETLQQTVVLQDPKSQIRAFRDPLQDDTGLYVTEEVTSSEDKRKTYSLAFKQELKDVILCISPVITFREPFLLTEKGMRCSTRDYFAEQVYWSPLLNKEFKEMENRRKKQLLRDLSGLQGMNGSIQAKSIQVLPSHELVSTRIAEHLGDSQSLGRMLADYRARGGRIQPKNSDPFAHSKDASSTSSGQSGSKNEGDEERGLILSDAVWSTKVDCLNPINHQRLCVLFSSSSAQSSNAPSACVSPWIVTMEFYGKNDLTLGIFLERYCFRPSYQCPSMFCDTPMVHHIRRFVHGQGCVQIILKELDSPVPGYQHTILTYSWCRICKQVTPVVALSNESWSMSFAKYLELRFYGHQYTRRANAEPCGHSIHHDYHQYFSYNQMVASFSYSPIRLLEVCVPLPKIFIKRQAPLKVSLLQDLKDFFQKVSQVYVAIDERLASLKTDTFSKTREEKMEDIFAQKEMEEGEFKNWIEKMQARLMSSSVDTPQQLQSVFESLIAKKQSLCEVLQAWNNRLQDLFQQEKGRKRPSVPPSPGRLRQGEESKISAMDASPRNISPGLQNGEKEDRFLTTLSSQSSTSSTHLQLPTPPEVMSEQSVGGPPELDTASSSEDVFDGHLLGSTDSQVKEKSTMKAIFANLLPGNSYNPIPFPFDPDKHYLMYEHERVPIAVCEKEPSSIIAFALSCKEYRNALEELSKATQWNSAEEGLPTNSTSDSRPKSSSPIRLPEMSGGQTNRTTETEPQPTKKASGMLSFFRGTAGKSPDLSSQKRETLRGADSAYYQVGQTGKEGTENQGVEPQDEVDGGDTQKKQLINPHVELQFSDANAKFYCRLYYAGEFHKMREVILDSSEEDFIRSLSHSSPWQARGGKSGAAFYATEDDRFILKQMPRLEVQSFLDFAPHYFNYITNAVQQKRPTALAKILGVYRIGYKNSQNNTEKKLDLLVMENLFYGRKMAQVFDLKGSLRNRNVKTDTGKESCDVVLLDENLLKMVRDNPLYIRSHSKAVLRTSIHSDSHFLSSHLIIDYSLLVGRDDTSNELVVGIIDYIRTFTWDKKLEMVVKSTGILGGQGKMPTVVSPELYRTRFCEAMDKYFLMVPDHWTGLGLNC

As to `FC(F)(F)c1ccccc1-c1nc(NCc2cccs2)c2ccccc2n1` [NIH-12848, reference compound], the Kd at PIP4K2C [1] was 2.8 µM.

Consider `Cc1cccc(/C=N/Nc2cc(N3CCOCC3)nc(OCCc3ccccn3)n2)c1` [Apilimod, reference compound], for which the EC50 with VEEV (TC-83) stood at 1.35 ± 0.49 µM; in the data set on SARS-CoV-2 it was 0.19 µM. Moreover, the CC50 in data set [2] is 18.4 ± 0.42 µM; in the data set with Capan-1 it was below 0.02 µM; in the data set on HCT-116, below 0.02 µM; in the data set with LN-229, 0.08 ± 0.09 µM; in the data set with NCI-H460, below 0.02 µM; in the data set with DND-41, 0.08 ± 0.02 µM. Besides, the CC50 in the data set with HL-60 was found to be 0.17 ± 0.02 µM; in the data set with K-562, 0.33 ± 0.34 µM; with Z-138, 0.06 µM. The “VEEV (TC-83) CC50” value with U-87 MG cells is on record as above 10 µM. Further, in data set [3], the IC50 was below 0.2 µM. For the same compound, in [4], the “growth of subcutaneous Burkitt lymphoma xenografts” value is recorded as “inhibits the growth”.

For `COc1ccc(-c2cnc3c(C#Cc4cnccc4C)snc3c2)cc1OC` [Compound 7p, 6-(3,4-Dimethoxyphenyl)-3-((4-methylpyridin-3-yl)ethynyl)isothiazolo[4,3-b]pyridine], the IC50 at PIKfyve (Tables 1-4 and text) was 33 nM. Besides, the EC50 in the data set with VEEV (TC-83) worked out at 4.01 ± 0.13 µM; in the data set on SARS-CoV-2, 0.83 ± 0.06 µM. Also, the CC50 in data set [2] is above 20 µM; in the data set with Capan-1 it was above 100 µM; in the data set on HCT-116, above 100 µM; with LN-229, above 100 µM; with NCI-H460, above 100 µM; in the data set with DND-41, above 100 µM. Moreover, the CC50 is above 100 µM with HL-60, above 100 µM in the data set on K-562 and 12.3 ± 1.77 µM in the data set with Z-138. Moreover, in the data set on U-87 MG cells, the “VEEV (TC-83) CC50” value was above 10 µM.

With `COc1cncc(C#Cc2snc3cc(-c4ccc(OC)c(OC)c4)cnc23)c1` [Compound 7l, 6-(3,4-Dimethoxyphenyl)-3-((5-methoxypyridin-3-yl)ethynyl)isothiazolo[4,3-b]pyridine], the IC50 at PIKfyve (Table 5 column) came to 3.3 nM; at PIKfyve (Tables 1-4 and text), 3.3 nM; on PIKfyve (values given in text in nM), 3 nM. Also, on PIKfyve (ratio of IC50 values), the “fold more potent on PIKfyve than 7o” value came to 6 fold. Further, the “fold more potent on PIKfyve than 7h” value at PIKfyve (ratio of IC50 values) was found to be 200 fold. Further, the EC50 in the data set on VEEV (TC-83) was found to be 1.64 ± 0.05 µM; in the data set with SARS-CoV-2 it was 4.92 ± 0.93 µM. In addition, the CC50 in data set [2] was above 20 µM; with Capan-1, 1.79 ± 1.2 µM; with HCT-116, 2.45 ± 0.85 µM; in the data set with LN-229 it was 5.15 ± 2.05 µM; in the data set on NCI-H460, 5.38 ± 0.56 µM; in the data set on DND-41, 5.25 ± 0.64 µM. The CC50 in the data set on HL-60 was determined as 1.8 µM; in the data set with K-562 it was 5.7 ± 1.27 µM; in the data set with Z-138, 1.85 ± 0.07 µM. Further, in the data set on U-87 MG cells, the “VEEV (TC-83) CC50” value is recorded as above 10 µM. Besides, binding on PIP4K2C [5] was characterised by a dissociation constant (Kd) of 0.039 µM.

As for `COc1ccc(-c2cnc3c(C#Cc4cccnc4)snc3c2)cc1OC` [Compound 21, 6-(3,4-dimethoxyphenyl)-3-(pyridin-3-ylethynyl)isothiazolo[4,3-b]pyridine], the EC50 in the data set with VEEV (TC-83) amounted to 0.75 ± 0.02 µM. The 50% cytotoxic concentration (CC50) was above 20 µM in [2]; 0.81 ± 0.11 µM in the data set on Capan-1; 0.82 ± 0.37 µM in the data set with HCT-116; 1.62 ± 0.5 µM with LN-229; 2.52 ± 1.09 µM in the data set on NCI-H460; 1.75 ± 1.02 µM in the data set on DND-41. For the same compound, the CC50 in the data set on HL-60 amounted to 1.47 ± 0.45 µM; in the data set with K-562, 4.24 ± 0.11 µM; in the data set on Z-138, 0.77 ± 0.06 µM. For the same compound, in the data set with U-87 MG cells, the “VEEV (TC-83) CC50” value is above 10 µM. Besides, at PIP4K2C [1], the Kd is 0.046 µM.

As to `NC(=O)c1ccc(-c2cnc3c(C#Cc4cccnc4)snc3c2)cc1` [Compound 3m, 4-(3-(Pyridin-3-ylethynyl)isothiazolo[4,3-b]pyridin-6-yl)benzamide], the half-maximal inhibitory concentration (IC50) at PIKfyve (Table 5 column) was 1.6 nM; at PIKfyve (Tables 1-4 and text) it was 1.6 nM. Also, the half-maximal effective concentration (EC50) with VEEV (TC-83) is 0.19 ± 0.001 µM; in the data set with SARS-CoV-2, 1.82 ± 0.94 µM. Also, the CC50 in data set [2] is above 20 µM; with Capan-1, 2.41 ± 0.94 µM; with HCT-116, 0.34 ± 0.78 µM; in the data set with LN-229, 3.23 ± 0.78 µM; with NCI-H460, 2.9 ± 1.72 µM; in the data set with DND-41 it was 2.25 ± 0.19 µM. Besides, the cytotoxic concentration (CC50) was found to be 1 ± 0.57 µM with HL-60, 6.53 ± 0.46 µM with K-562 and 0.96 ± 0.3 µM in the data set with Z-138. Also, the “VEEV (TC-83) CC50” value with U-87 MG cells is on record as above 20 µM. Also, the Kd on PIP4K2C [5] worked out at 0.041 µM.

Take `COc1ccc(-c2cnc3c(C#Cc4cncc(C)c4)snc3c2)cc1OC` [Compound 7i, 6-(3,4-Dimethoxyphenyl)-3-((5-methylpyridin-3-yl)ethynyl)isothiazolo[4,3-b]pyridine]: the IC50 at PIKfyve (Tables 1-4 and text) worked out at 2 nM; on PIKfyve (values given in text in nM), 2 nM. Moreover, the 50% cytotoxic concentration (CC50) was 14.6 ± 2.97 µM with Capan-1; at least 74 µM in the data set with HCT-116; above 100 µM with LN-229; above 100 µM with NCI-H460; above 100 µM in the data set on DND-41; above 100 µM in the data set on HL-60. The CC50 was above 100 µM in the data set on K-562 and 70.2 ± 2.55 µM with Z-138.

These data come from article PMC12472322, “Structure–Activity Relationship Study of 3-Alkynyl-6-aryl-isothiazolo[4,3-b]pyridines as Dual Inhibitors of the Lipid Kinases PIKfyve and PIP4K2C” (Pharmaceuticals, 2025).
